{
  "source": "paper PMC9084902",
  "about": "“Low-Molecular Weight Protamine Overcomes Chondroitin Sulfate Inhibition of Neural Regeneration” (Frontiers in Cell and Developmental Biology, 2022)",
  "key": {"hippocampal neurons [1]": {"tested_on": "hippocampal neurons", "assay": "neurite outgrowth on precoated plastic without aggrecan, hippocampal neurons", "format": "cell-based, Wistar rat", "conditions": "precoated 10 μg/ml on plastic, no aggrecan, 2 days; about 70 neurons/replicate; p < 0.0001, n = 7", "experimental": "The cortex or hippocampus were obtained from 17 days-old Wistar rat embryos and transferred to ice-cold preparation solution. Neurons were further isolated exactly as described earlier in Sahu’s publication ([Sahu et al., 2019]). Primary rat cortical or hippocampal neurons (E17 Wistar rats) were cultured in 96-well plates at the density of 20000 cells/well in Neurobasal medium supplemented with B27 serum substitute, penicillin, streptomycin and L-glutamate for 2 days in vitro (DIV). The plates were precoated with aggrecan (5 ug/ml, 150 µl/well). Protamine or protamine peptides were added to the culture medium at different concentrations. To analyze the effect of protamine or its fragment on neurite outgrowth, the plates were coated with 10 μg/ml of protamine or LMWP. For the experiment with chondroitinase, the aggrecan-coated plates were treated with chondroitinase ABC (Amsbio AMS. E1028, lot CF0029) for 4 h followed by 2 times washing with PBS before cell plating, and the cell culture imaging was carried out after 3 DIV incubation with 4 uM LMWP added to the medium. Neurite outgrowth was imaged with phase contrast microscopy (Olympus IX70 microscope and Retiga 2000R digital camera) using both x10 and x20 objectives. […] Neurite length was measured with ImageJ software and averaged from 2 to 3 independent experiments with 1–2 technical replicas in each independent experiment."}, "[2]": {"tested_on": "mouse cervical hemicontusion model", "assay": "cylinder test, C5 hemicontusion, ICV delivery", "format": "in vivo, C57BL6/NHsd mouse", "conditions": "ICV LMWP; weeks 4, 6 and 8; n = 6–11", "experimental": "The mouse was placed into the glass cylinder of 13 cm in diameter and 15 cm high. A mirror was positioned at the angle behind the cylinder for better observation. The mouse was videotaped for the first 20 exploratory vertical rearings or for 5 min. The number of rearings in which the mouse used the right (impaired), the left or both limbs for support against the wall was measured. Paw preference was calculated as the ratio of total number of left limb use (left + both) to total number of right (impaired) limb use (right + both). A trial with less than 5 rearings within 5 min was excluded from the analysis."}, "[3]": {"tested_on": "mouse cervical hemisection model", "assay": "vertical screen test, C5 hemisection, ICV delivery", "format": "in vivo, C57BL6/NHsd mouse", "conditions": "n = 5–10", "experimental": "(§1) The mouse was placed on the brink of a horizontal wire screen (25 × 22 cm, diameter of wires 2 mm spaced at 1 cm) faced to edge. Immediately after that the screen was turned vertically to place the mouse to the upside down position at the lower edge. The time that the animal needed to climb to the upper edge was measured during 1 min. If the animal was not able to climb up or fell down from the screen the maximum time 60 s was marked as the climbing time. The average parameter of three subsequent trials repeated with at least 1 min interval was used for data analysis."}, "[4]": {"tested_on": "mouse cervical hemicontusion model", "assay": "locomotor activity in open field, C5 hemicontusion, subcutaneous delivery", "format": "in vivo, C57BL6/NHsd mouse", "conditions": "15 min open field, 16 µg s.c. daily 49 days; n = 7–13", "experimental": "(§2) The effectiveness of systemically delivered LMWP in treatment of spinal cord trauma was tested in the cervical hemicontusion model (Figure 1B). Baseline behavior was assessed 1 week before the trauma surgery, and the results were used for balanced distribution of animals to the 3 experimental groups (“sham”, “trauma + PBS” and “trauma + LMWP”). Each housing cage contained animals from all three groups. Subcutaneous injections to the back area were started on the next day after the trauma and continued daily for 49 days. LMWP was injected subcutaneously at the 16 µg dose in 200 µl of sterile PBS. The groups “sham” and “trauma + PBS” got the same volume of PBS. Behavioral assessment was started 2 weeks after the trauma and finished at the week 12.\nTo evaluate the locomotor activity the animals were released to the corner of a transparent plexiglas chamber (30 cm × 30 cm, MedAssiociates, St.Albans,VT; illumination about 100lx) for 15 min. The travelled distance and the time spent in vertical activity (exploratory rearings) were analyzed with the Activity Monitor v5.1 software (Med Associates, St. Albans, VT)."}, "[5]": {"tested_on": "mouse cervical hemicontusion model", "assay": "frontpaw grip strength, C5 hemicontusion, subcutaneous delivery", "format": "in vivo, C57BL6/NHsd mouse", "conditions": "16 µg s.c. daily 49 days", "experimental": "as §2"}, "[6]": {"tested_on": "PTPσ ectodomain binding to aggrecan", "assay": "solid phase binding of wild-type PTPσ ectodomain to aggrecan, competition by LMWP", "text": "The N-terminal extracellular part of PTPσ (protein tyrosine phosphatase sigma; PTPRS) that contains the three Ig domains (amino acids 1-321) and mediates CSPG binding ([Shen et al., 2009]) was cloned using the PTPσ cDNA kindly provided by Dr. John Flanagan (Harvard University). The PTPσ mutant lacking the CS binding site in the Ig1 domain was produced as described ([Shen et al., 2009]). The recombinants were produced as Fc-tagged proteins in 293T HEK cells and purified on protein A Sepharose.\nThe competition assay for LMWP in binding of PTPσ to aggrecan was done in a similar way as earlier ([Paveliev et al., 2016]). Briefly, after overnight coating with 10 μg/ml aggrecan (150 ul/well) at 4°C 96-well tissue culture plates (Nunc) were washed two times with 0.05% Tween-20 in PBS and were blocked for 1 h at room temperature with 1%BSA and 0.05% Tween-20 in PBS. The recombinant wild type PTPσ ectodomain or the mutated ectodomain lacking CS binding (80 nM) were mixed with different concentrations of LMWP in 1% BSA and 0.05% Tween-20 in PBS, and were incubated in the plates overnight at 4°C. After washing with 0.05% Tween20 (3 times, room temperature), the wells were incubated for 1 h (room temperature) with HRP conjugated goat anti-human FC part of IgG (1:5000, in 1% BSA and 0.05% Tween20 PBS) to detect the bound PTPσ. […]"}, "hippocampal neurons [7]": {"tested_on": "hippocampal neurons", "assay": "neurite outgrowth on aggrecan substrate, hippocampal neurons", "format": "cell-based, Wistar rat", "conditions": "10 μg/ml, n = 3", "experimental": "The cortex or hippocampus were obtained from 17 days-old Wistar rat embryos and transferred to ice-cold preparation solution. Neurons were further isolated exactly as described earlier in Sahu’s publication ([Sahu et al., 2019]). Primary rat cortical or hippocampal neurons (E17 Wistar rats) were cultured in 96-well plates at the density of 20000 cells/well in Neurobasal medium supplemented with B27 serum substitute, penicillin, streptomycin and L-glutamate for 2 days in vitro (DIV). The plates were precoated with aggrecan (5 ug/ml, 150 µl/well). Protamine or protamine peptides were added to the culture medium at different concentrations. To analyze the effect of protamine or its fragment on neurite outgrowth, the plates were coated with 10 μg/ml of protamine or LMWP. For the experiment with chondroitinase, the aggrecan-coated plates were treated with chondroitinase ABC (Amsbio AMS. E1028, lot CF0029) for 4 h followed by 2 times washing with PBS before cell plating, and the cell culture imaging was carried out after 3 DIV incubation with 4 uM LMWP added to the medium. Neurite outgrowth was imaged with phase contrast microscopy (Olympus IX70 microscope and Retiga 2000R digital camera) using both x10 and x20 objectives. Processes of neurons over the diameter of the neuronal soma were interpreted as neurites. Neurite length was measured with ImageJ software and averaged from 2 to 3 independent experiments with 1–2 technical replicas in each independent experiment."}, "[8]": {"tested_on": "mouse cervical hemicontusion model", "assay": "vertical screen test, C5 hemicontusion, ICV delivery", "format": "in vivo, C57BL6/NHsd mouse", "conditions": "n = 6–11", "experimental": "as §1"}},
  "note": "“Also recorded” adds a separate entry of the source.",
  "data": [
    {"sequence": "VSRRRRRRGGRRRR [LMWP, low-molecular weight protamine]", "values": [
      {"measurement": "total neurite length versus uncoated control", "setting": "hippocampal neurons [1]", "result": "increased the total neurite length as compared to the parallel control cultures"},
      {"measurement": "ipsilateral front paw use versus sham", "setting": "[2]", "result": "reduction in front paw use asymmetry starting from the week 4 after the trauma; also recorded: not significantly different from the sham group on the weeks 4, 6 and 8 after the trauma"},
      {"measurement": "climbing time in vertical screen, time course", "setting": "[3]; ICV LMWP 4 µl of 1 mg/ml daily, 6 days from day 3, weeks 2-9", "result": "progressively reduced the climbing time"},
      {"measurement": "climbing time difference versus PBS-treated group", "setting": "[3]; ICV LMWP, week 9, p = 0.0304, Kruskal-Wallis with Dunn's", "result": "reached a statistically significant level at the week 9 after the trauma"},
      {"measurement": "general locomotor activity", "setting": "[4]", "result": "did not affect general locomotor activity"},
      {"measurement": "grip strength versus PBS", "setting": "[5]; week 6 p = 0.0449, week 9 p = 0.0221, one-way ANOVA with Tukey's", "result": "significantly increased grip strength parameters on the week 6 and the week 12; also recorded: significant increase of frontpaw grip strength in comparison with the PBS-treated animals on the weeks 6 and 9"},
      {"measurement": "grip strength versus PBS, week 12", "setting": "[5]; week 12 p = 0.0558, one-way ANOVA with Tukey's", "result": "trend towards increased grip strength on the week 12"},
      {"measurement": "inhibition of PTPσ binding to aggrecan", "setting": "[6]; 80 nM PTPσ-Fc, 10 μg/ml aggrecan coating, increasing LMWP, overnight 4°C, HRP anti-Fc/OPD 492 nm, n = 3, Figure 5C", "result": "progressively decreased by increasing LMWP concentrations; also recorded: clearly inhibited PTPσ binding to aggrecan in a similar manner as HB-GAM"},
      {"measurement": "similarity of LMWP to mutated PTPσ in binding suppression", "setting": "[6]; aggrecan substrate, increasing LMWP concentrations", "result": "mimicked the binding suppression effect seen with the mutated PTPσ"},
      {"measurement": "reversal of the inhibitory effect of aggrecan on neurite outgrowth (comparison among fragments)", "setting": "hippocampal neurons [7]; hippocampal neurons (E17 rat), 2 days on aggrecan, precoated with aggrecan or soluble in medium, about 70 neurons/replicate, normalized to control, Figure 2L", "result": "more effective in reversing the inhibitory effect of aggrecan than the 22 amino acid fragment or the full-length protamine"},
      {"measurement": "length of the longest neurite, versus uncoated control", "setting": "hippocampal neurons [7]; precoated with aggrecan, 2 days, 10 neurons per condition per experiment, Supplementary Figure S1B,E", "result": "slightly reduces the length of the longest neurite"},
      {"measurement": "increase in number of branches", "setting": "hippocampal neurons [7]; precoated with aggrecan, 2 days, 10 neurons per condition per experiment, Supplementary Figure S1C,F", "result": 3, "unit": "fold"},
      {"measurement": "total neurite length", "setting": "hippocampal neurons [7]; precoated with aggrecan, 2 days, Figure 2 and Supplementary Figure S1A,D", "result": "increase in the total neurite length"},
      {"measurement": "vertical climbing test, time course", "setting": "[8]; ICV LMWP 4 µl of 1 mg/ml daily, 6 days from day 3", "result": "progressive improvement in the vertical climbing test; also recorded: progressively improve the climbing function in the vertical screen test starting from the week 3 after the trauma induction"},
      {"measurement": "climbing time versus sham after second post-trauma week", "setting": "[8]; ICV LMWP, week 3 p = 0.1508, week 4 p = 0.1311, week 5 p = 0.6967, PBS group differed from sham until week 5", "result": "did not reveal a significant difference after the second post-trauma week"}
    ]}
  ]
}
